Test results as given in patent US11680060B2, “Bicycloheptane pyrrolidine orexin receptor agonists” (Merck Sharp & Dohme LLC, priority 2020, dated 2023).

Biological target: human OX2R (Homo sapiens (Human), UniProt O43614)
Test: IPOne (IP-1) assay in CHO cells expressing human OX2R
Type: cell-based
Settings: for Emax: CHO, read-out: Emax (%); for Emax / Emax (%): percentage of mean max effect of a reference compound at 1 uM (100% activity by comparison to Orexin A), human OX2R; for IC50: CHO cells expressing human OX2R, IP-One detection, 2 hours incubation, EC50 = inflection point of four parameter logistic fit, read-out: hOX2R_IP_IC50
From the text: The utility of the compounds in accordance with the present invention as orexin receptor OX1R and/or OX2R agonists may be readily determined without undue experimentation by methodology well known in the art. Both the OX1R and/or OX2R G-coupled protein receptors (GPCRs) couple through the Gαq signaling pathway, which ultimately promotes calcium mobilization via inositol triphosphate (IP3) production. The half-life of IP-3 is relatively short, being rapidly metabolized to inositol monophosphate (IP-1), which can be readily detected using a commercially available assay kit (IP-One; Cisbio; cat #621PAPEC) coupled with a cell line expressing the target receptor(s) of interest. The utility of the compounds in accordance with the present invention as orexin receptor OX1R and/or OX2R agonists may be determined utilizing this assay.
In a typical experiment, the OX1 and OX2 receptor agonist activity is determined in accordance with the following general experimental method. Chinese hamster ovary (CHO) cells expressing human OX1R and/or the human OX2R were grown in Iscove's modified DMEM containing glutaMAX™, 1% G418, 100 U/mL penicillin, 100 μg/mL streptomycin and 10% heat-inactivated qualified fetal bovine serum (FBS). The OX2R cells were seeded at 10,000 cells/well/50 μL and the OX1R cells were seeded at 20,000 cells/well/50 μL into 384-well white tissue culture plates (Greiner; cat #781080). All cell/media reagents were from GIBCO-Invitrogen Corp. The seeded cell plate(s) were incubated at 37° C. with 5% CO2 and 85% humidity for 20-24 hours. On the day of the assay, assay-ready compound plates were prepared using an acoustic liquid handler (ECHO; Labcyte), which dispensed sufficient volume of test compound stock (10 mM in DMSO) or 100% DMSO to prepare 10 point, ½-log dilutions in a final volume of 202.5 nL/well in all test wells of a 384-well diamond plate (Labcyte). Following completion of assay-ready plates, importantly, the next three steps were performed with minimal delay: 1) 20 μl of 1× stimulation buffer was added to the compound plate using a Multidrop Combi (small cassette, Thermo Fisher Scientific cat #24073290); 2) culture medium was removed from the cell plate using the Bluewasher plate washer (gentle spin; BlueCatBio); 3) 14 μl of compound/stimulation buffer mixture was added to the cell plate using a Bravo liquid handler (Agilent) prior to incubating cell plates at 37° C. with 5% CO2 and 85% humidity for 1 or 2 hours (OX1R and OX2R, respectively). During this incubation, IP-one detection reagents were prepared (38:1:1 lysis buffer:D2:AB-cryptate reagents). Six μL of mixed detection reagents were added to the cell plate using a Multidrop Combi (small cassette, Thermo Fisher Scientific cat #24073290) and incubated 60 minutes at room temperature in the dark. Fluorescence signal was detected using an Envision plate reader (Perkin Elmer) [LANCE/DELFIA Dual Enh (Em: APC 665; Ex: Cy5 620)].
For each compound, data were fit to a four parameter logistic fit (ActivityBase software) and the EC50 was reported as the inflection point of the resulting curve. Percent effect for each test compound was determined as the percentage of sample raw value/mean max effect, where the mean max effect was derived from the mean raw value of 32 control wells per assay plate (using Orexin A (cat #003-30) at 1 μM for human OX1R and a reference compound at 1 uM with 100% activity previously established by comparison to Orexin A for human OX2R). The intrinsic orexin receptor agonist activity of a compound which may be used in the present invention may be determined by these assays.

Sequence of human OX2R (O43614 whole entry): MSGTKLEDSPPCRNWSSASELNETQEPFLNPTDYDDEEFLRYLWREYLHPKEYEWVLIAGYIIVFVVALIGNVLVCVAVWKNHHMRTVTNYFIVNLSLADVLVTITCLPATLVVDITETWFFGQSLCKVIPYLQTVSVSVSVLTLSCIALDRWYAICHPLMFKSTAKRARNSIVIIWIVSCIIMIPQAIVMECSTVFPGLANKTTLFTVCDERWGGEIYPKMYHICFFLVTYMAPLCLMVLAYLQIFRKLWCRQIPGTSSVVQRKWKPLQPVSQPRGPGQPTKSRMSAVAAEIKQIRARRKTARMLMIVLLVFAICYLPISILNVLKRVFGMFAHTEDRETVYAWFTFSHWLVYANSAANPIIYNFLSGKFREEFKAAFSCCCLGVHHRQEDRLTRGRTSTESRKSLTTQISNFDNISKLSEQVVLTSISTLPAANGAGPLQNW

Emax [%]	IC50 [nM]	Emax (%)	Compound
100			CC(C)OC(=O)N1[C@H](C(F)F)C[C@H](NS(C)(=O)=O)[C@@H]1CO[C@H]1CC[C@@]2(c3ncc(F)cn3)C[C@H]2C1 [Example 119, isopropyl (2R,3S,5S)-5-(difluoromethyl)-2-((((1S,3S,6R)-6-(5-fluoropyrimidin-2-yl)bicyclo[4.1.0]heptan-3-yl)oxy)methyl)-3-(methylsulfonamido)pyrrolidine-1-carboxylate]
103	0.6		COC(=O)N1[C@H](C(F)F)C[C@H](NS(=O)(=O)CF)[C@@H]1CO[C@H]1CC[C@@]2(c3ncc(F)cn3)C[C@H]2C1 (single isomer, unassigned) [Example 113]
99.7			COC(=O)N1[C@H](C)C[C@H](NS(=O)(=O)C(F)F)[C@@H]1CO[C@H]1CC[C@@]2(c3ncccn3)C[C@H]2C1 [Example 68, methyl (2R,3S,5R)-3-((difluoromethyl)sulfonamido)-5-methyl-2-((((1S,3S,6R)-6-(pyrimidin-2-yl)bicyclo[4.1.0]heptan-3-yl)oxy)methyl)pyrrolidine-1-carboxylate]
103			COC(=O)N1[C@H](C)C[C@H](NS(=O)(=O)CCl)[C@@H]1CO[C@H]1CC[C@@]2(c3ncc(F)cn3)C[C@H]2C1 [Example 37, methyl (2R,3S,5R)-3-((chloromethyl)sulfonamido)-2-((((1S,3S,6R)-6-(5-fluoropyrimidin-2-yl)bicyclo[4.1.0]heptan-3-yl)oxy)methyl)-5-methylpyrrolidine-1-carboxylate]
104			COC(=O)N1[C@H](C)C[C@H](NS(=O)(=O)CF)[C@@H]1COC1CCC2(c3ncc(Br)cn3)CC2C1 (stereo partly drawn) [Example 89, methyl (2R,3S,5R)-2-(((6-(5-bromopyrimidin-2-yl)bicyclo[4.1.0]heptan-3-yl)oxy)methyl)-3-((fluoromethyl)sulfonamido)-5-methylpyrrolidine-1-carboxylate]
101			COC(=O)N1[C@H](C)C[C@H](NS(=O)(=O)C(F)(F)F)[C@@H]1CO[C@H]1CC[C@@]2(c3ncc(F)cn3)C[C@H]2C1 [Example 31, methyl (2R,3S,5R)-2-((((1S,3S,6R)-6-(5-fluoropyrimidin-2-yl)bicyclo[4.1.0]heptan-3-yl)oxy)methyl)-5-methyl-3-((trifluoromethyl)sulfonamido)pyrrolidine-1-carboxylate]
		95.4	CC(C)OC(=O)N1[C@H](C)C[C@H](NS(=O)(=O)N(C)C)[C@@H]1COC1CCC2(c3ncccn3)CC2C1 (stereo partly drawn) [Example 8, isopropyl (2R,3S,5R)-3-((N,N-dimethylsulfamoyl)amino)-5-methyl-2-(((6-(pyrimidin-2-yl)bicyclo[4.1.0]heptan-3-yl)oxy)methyl)pyrrolidine-1-carboxylate]
101	3.4		COC(=O)N1[C@H](C)C[C@H](NS(=O)(=O)C(F)F)[C@@H]1COC1CCC2(c3ncccn3)CC2C1 (mixture of isomers) [Example 67, methyl (2R,3S,5R)-3-((difluoromethyl)sulfonamido)-5-methyl-2-(((6-(pyrimidin-2-yl)bicyclo[4.1.0]heptan-3-yl)oxy)methyl)pyrrolidine-1-carboxylate]
101			C[C@@H]1C[C@H](NS(C)(=O)=O)[C@H](CO[C@H]2CC[C@@]3(c4ncc(F)cn4)C[C@H]3C2)N1C(=O)OCC(C)(F)F [Example 64, 2,2-difluoropropyl (2R,3S,5R)-2-((((1S,3S,6R)-6-(5-fluoropyrimidin-2-yl)bicyclo[4.1.0]heptan-3-yl)oxy)methyl)-5-methyl-3-(methylsulfonamido)pyrrolidine-1-carboxylate]
102			C[C@@H]1C[C@H](NS(C)(=O)=O)[C@H](CO[C@H]2CC[C@@]3(c4ncc(F)cn4)C[C@H]3C2)N1C(=O)OCC1(C)CC1(F)F (stereo partly drawn) [Example 57, (2,2-difluoro-1-methylcyclopropyl)methyl (2R,3S,5R)-2-((((1S,3S,6R)-6-(5-fluoropyrimidin-2-yl)bicyclo[4.1.0]heptan-3-yl)oxy)methyl)-5-methyl-3-(methylsulfonamido)pyrrolidine-1-carboxylate]
94.7	2030		COC(=O)N1CC[C@H](NS(C)(=O)=O)[C@@H]1CO[C@@H]1CC[C@]2(c3ncccn3)C[C@@H]2C1 (single isomer, unassigned) [Example 176]
102			COC(=O)N1[C@H](C)C[C@H](NS(=O)(=O)CF)[C@@H]1COC1CCC2(c3ncc(Cl)cn3)CC2C1 (stereo partly drawn) [Example 94, methyl (2R,3S,5R)-2-(((6-(5-chloropyrimidin-2-yl)bicyclo[4.1.0]heptan-3-yl)oxy)methyl)-3-((fluoromethyl)sulfonamido)-5-methylpyrrolidine-1-carboxylate]
101			CCS(=O)(=O)N[C@H]1C[C@@H](C(F)F)N(C(=O)OC)[C@H]1COC1CCC2(c3ncc(F)cn3)CC2C1 (stereo partly drawn) [Example 117, methyl (2R,3S,5S)-5-(difluoromethyl)-3-(ethylsulfonamido)-2-(((6-(5-fluoropyrimidin-2-yl)bicyclo[4.1.0]heptan-3-yl)oxy)methyl)pyrrolidine-1-carboxylate]
105			C[C@@H]1C[C@H](NS(C)(=O)=O)[C@H](CO[C@H]2CC[C@@]3(c4ncc(F)cn4)C[C@H]3C2)N1C(=O)OC[C@H]1[C@H](C)C1(F)F [Example 55, ((1R,3S)-2,2-difluoro-3-methylcyclopropyl)methyl (2R,3S,5R)-2-((((1S,3S,6R)-6-(5-fluoropyrimidin-2-yl)bicyclo[4.1.0]heptan-3-yl)oxy)methyl)-5-methyl-3-(methylsulfonamido)pyrrolidine-1-carboxylate]
		94.7	COC(=O)N1CC[C@H](NS(C)(=O)=O)[C@@H]1CO[C@@H]1CC[C@]2(c3ncccn3)C[C@@H]2C1 (single isomer, unassigned) [Example 25]
101	2.6		COC(=O)N1[C@H](C(F)(F)F)C[C@H](NS(C)(=O)=O)[C@@H]1CO[C@H]1CC[C@@]2(c3ncc(F)cn3)C[C@H]2C1 (single isomer, unassigned) [Example 133]
102	34.5		CC(C)OC(=O)N1[C@H](C)C[C@H](NS(=O)(=O)CF)[C@@H]1CO[C@@H]1CC[C@]2(c3ncc(Br)cn3)C[C@@H]2C1 (single isomer, unassigned) [Example 104]
101	1.8		COC(=O)N1[C@@H]2CCC[C@@H]2[C@H](NS(C)(=O)=O)[C@@H]1CO[C@H]1CC[C@@]2(c3ncc(F)cn3)C[C@H]2C1 (single isomer, unassigned) [Example 131]
108			CC(C)OC(=O)N1CCC[C@H](NS(=O)(=O)C(F)F)[C@@H]1CO[C@H]1CC[C@@]2(c3ncc(F)cn3)C[C@H]2C1 [Example 121, isopropyl (2R,3S)-3-((difluoromethyl)sulfonamido)-2-((((1S,3S,6R)-6-(5-fluoropyrimidin-2-yl)bicyclo[4.1.0]heptan-3-yl)oxy)methyl)piperidine-1-carboxylate]
103			COC(=O)N1[C@H](C)C[C@H](NS(=O)(=O)N2CCC2)[C@@H]1CO[C@H]1CC[C@@]2(c3ncc(F)cn3)C[C@H]2C1 [Example 39, methyl (2R,3S,5R)-3-(azetidine-1-sulfonamido)-2-((((1S,3S,6R)-6-(5-fluoropyrimidin-2-yl)bicyclo[4.1.0]heptan-3-yl)oxy)methyl)-5-methylpyrrolidine-1-carboxylate]
99.3	0.37		CC(C)OC(=O)N1CCC[C@H](NS(=O)(=O)CF)[C@@H]1CO[C@H]1CC[C@@]2(c3ncc(F)cn3)C[C@H]2C1 (single isomer, unassigned) [Example 124]
